Assay results as given in patent US20050003371A1, “Modified nucleotides and methods of labeling nucleic acids” (Stratagene, priority 2002, published 2005).
“Also recorded” adds a separate entry of the source.

Key:
Klenow polymerase = target: T1, Klenow polymerase (Escherichia coli, UniProt P00582); experiment: Polymerase primer extension assay (Procedure 2); assay type: biochemical, E. coli; settings: Procedure 2, results not shown
T1 construct: Incorporation results using SAc-dUTP and the Klenow fragment of DNA polymerase I following Procedure 3
Procedure: (§1) Aliquots containing 10 ng of the kinased 12-mer described in procedure 1 were combined with 40 ng of an 18-mer oligonucleotide (5′-[…]-3′; SEQ ID NO: 2) in 8 μL of T-7 buffer (20 mM MgCl2, 50 mM NaCl, 40 mM Tris, pH 7.5) or Klenow buffer (5 mM MgCl2, 4 mM DTT, 35 mM Tris, pH 7.5). To each reaction was added 1 μL of a solution containing 100 μM each of dATP and fluorescein 12-dUTP. The reaction contents were heated to 95° C. for 2 minutes and allowed to cool to room temperature. Five units (1 μL) of the appropriate polymerase were added and the reaction mixtures were incubated at 37° C. for 10 minutes. Control reactions were run which contained no polymerase. Polymerase activity was terminated by addition of 3 μL of 1M EDTA and the extension products were separated by electrophoresis using a 20% acrylamide gel and the results visualized by autoradiography. A measurement of the degree of polymerase-catalyzed primer extension obtained in the presence of modified nucleotide analogs according to the invention can be determined by substituting the modified nucleotide (1 μL of 100 μM) for fluorescein 12-dUTP in procedure 2.

Taq DNA polymerase = target: T2, Taq DNA polymerase (Thermus aquaticus, UniProt P19821); experiment: Polymerase primer extension assay, 12-mer primer/18-mer template (Procedure 2); assay type: biochemical; settings: template with maximum four dTTP/dUTP sites
T2 construct: purchased Stratagene (La Jolla, Calif.)
Procedure: as §1

[1] = test system: exonuclease free Klenow polymerase; settings: Procedure 2, results not shown
Procedure: as §1

T7 DNA polymerase = T7 DNA polymerase (Escherichia phage T7, UniProt P00581); settings: Procedure 2; for incorporation into DNA by T7 DNA polymerase in primer extension: template with maximum four dTTP/dUTP sites
Procedure: as §1

[2] = target: T3, terminal deoxynucleotide transferase (TdT) (Bos taurus, UniProt P06526); experiment: Tailing / 3'-end labeling of a 12-mer oligonucleotide with terminal transferase (Procedure 1); assay type: biochemical; settings: for number of contiguous modified bases added to the 3' terminus: TdT-catalyzed end labeling
T3 construct: purchased Stratagene (La Jolla, Calif.)
Procedure: A 12-mer oligonucleotide (5′-[…]-3′; SEQ ID NO: 1) was 5′ labeled with ^32P ATP and T4 Polynucleotide Kinase according to established methods (Roychoudhury and Wu, 1980; Sambrook, Fritch, and Maniatis, 1989). Aliquots of the mixture containing 10 ng of kinased oligo were combined with 100 pmol of fluorescein 12-dUTP and 5 units of terminal deoxynucleotide transferase (TdT) in 100 mM potassium cacodylate, 2 mM CoCl2, pH 7.2 (final volume of 10 μL). […] The reactions were quenched by the addition of loading dye and 4 μL aliquots were loaded onto a sequencing gel (14″×17″, poured with 20% acrylamide/7M urea/1×TBE), electrophoresed for 3 hours at 55 watts/[…] and exposed to X-ray film.

T7 DNA polymerase, sequence (P00581 whole entry): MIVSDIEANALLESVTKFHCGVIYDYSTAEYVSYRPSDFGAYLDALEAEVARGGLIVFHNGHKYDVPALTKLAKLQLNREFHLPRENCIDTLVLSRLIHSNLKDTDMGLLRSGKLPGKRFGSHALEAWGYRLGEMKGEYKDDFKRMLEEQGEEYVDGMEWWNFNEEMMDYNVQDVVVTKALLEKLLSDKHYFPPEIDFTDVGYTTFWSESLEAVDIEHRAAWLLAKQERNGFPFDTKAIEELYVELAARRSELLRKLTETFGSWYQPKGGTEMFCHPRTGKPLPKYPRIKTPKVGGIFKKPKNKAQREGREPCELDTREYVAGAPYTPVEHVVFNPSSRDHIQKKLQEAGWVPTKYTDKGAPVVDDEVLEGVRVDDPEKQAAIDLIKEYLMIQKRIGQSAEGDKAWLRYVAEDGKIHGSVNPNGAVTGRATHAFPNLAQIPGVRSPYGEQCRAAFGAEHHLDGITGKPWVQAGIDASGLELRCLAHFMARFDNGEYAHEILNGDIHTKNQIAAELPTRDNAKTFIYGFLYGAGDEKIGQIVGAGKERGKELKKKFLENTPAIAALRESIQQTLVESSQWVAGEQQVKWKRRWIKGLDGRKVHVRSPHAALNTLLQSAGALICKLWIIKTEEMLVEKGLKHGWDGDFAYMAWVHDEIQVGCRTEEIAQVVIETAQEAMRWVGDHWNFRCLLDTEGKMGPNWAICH
T7 DNA polymerase, sequence (P0AA25 2-109, further chain): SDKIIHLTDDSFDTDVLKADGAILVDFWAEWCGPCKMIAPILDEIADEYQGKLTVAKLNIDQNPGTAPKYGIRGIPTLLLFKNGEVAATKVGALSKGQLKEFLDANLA
T3 sequence (P06526 whole entry): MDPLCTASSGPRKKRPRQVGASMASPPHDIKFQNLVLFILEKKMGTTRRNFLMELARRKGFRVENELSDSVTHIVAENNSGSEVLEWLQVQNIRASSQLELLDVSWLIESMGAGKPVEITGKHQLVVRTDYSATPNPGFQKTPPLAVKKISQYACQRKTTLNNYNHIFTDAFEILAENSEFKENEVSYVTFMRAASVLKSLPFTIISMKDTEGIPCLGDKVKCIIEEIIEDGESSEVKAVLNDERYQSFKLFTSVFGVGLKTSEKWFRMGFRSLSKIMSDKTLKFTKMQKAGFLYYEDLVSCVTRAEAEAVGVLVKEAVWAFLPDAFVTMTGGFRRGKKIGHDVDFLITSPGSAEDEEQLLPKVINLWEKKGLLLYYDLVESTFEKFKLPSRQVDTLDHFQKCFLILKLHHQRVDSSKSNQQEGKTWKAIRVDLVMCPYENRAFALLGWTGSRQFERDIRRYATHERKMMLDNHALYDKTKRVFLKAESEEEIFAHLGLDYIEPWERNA
T2 sequence (P19821 whole entry): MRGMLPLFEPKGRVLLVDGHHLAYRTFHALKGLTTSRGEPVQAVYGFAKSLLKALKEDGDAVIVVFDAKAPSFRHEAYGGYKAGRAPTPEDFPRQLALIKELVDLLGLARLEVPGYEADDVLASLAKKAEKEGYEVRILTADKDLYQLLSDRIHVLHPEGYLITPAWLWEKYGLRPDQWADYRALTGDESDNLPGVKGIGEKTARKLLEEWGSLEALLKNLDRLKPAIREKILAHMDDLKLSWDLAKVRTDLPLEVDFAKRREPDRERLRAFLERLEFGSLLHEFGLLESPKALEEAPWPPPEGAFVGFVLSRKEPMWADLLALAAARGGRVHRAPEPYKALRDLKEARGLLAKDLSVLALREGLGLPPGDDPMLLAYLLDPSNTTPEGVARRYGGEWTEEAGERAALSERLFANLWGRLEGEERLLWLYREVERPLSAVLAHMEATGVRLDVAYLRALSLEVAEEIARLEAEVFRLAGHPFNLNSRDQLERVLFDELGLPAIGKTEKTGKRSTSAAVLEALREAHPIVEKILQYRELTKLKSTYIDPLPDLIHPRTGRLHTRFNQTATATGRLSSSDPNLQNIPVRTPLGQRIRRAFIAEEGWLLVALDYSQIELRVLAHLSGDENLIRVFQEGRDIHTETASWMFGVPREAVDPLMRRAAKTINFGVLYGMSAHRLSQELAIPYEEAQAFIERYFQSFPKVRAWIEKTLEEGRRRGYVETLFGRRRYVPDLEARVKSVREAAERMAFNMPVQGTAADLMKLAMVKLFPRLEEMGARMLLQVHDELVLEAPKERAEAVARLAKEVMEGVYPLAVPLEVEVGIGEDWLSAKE
T1 sequence (P00582 324-928): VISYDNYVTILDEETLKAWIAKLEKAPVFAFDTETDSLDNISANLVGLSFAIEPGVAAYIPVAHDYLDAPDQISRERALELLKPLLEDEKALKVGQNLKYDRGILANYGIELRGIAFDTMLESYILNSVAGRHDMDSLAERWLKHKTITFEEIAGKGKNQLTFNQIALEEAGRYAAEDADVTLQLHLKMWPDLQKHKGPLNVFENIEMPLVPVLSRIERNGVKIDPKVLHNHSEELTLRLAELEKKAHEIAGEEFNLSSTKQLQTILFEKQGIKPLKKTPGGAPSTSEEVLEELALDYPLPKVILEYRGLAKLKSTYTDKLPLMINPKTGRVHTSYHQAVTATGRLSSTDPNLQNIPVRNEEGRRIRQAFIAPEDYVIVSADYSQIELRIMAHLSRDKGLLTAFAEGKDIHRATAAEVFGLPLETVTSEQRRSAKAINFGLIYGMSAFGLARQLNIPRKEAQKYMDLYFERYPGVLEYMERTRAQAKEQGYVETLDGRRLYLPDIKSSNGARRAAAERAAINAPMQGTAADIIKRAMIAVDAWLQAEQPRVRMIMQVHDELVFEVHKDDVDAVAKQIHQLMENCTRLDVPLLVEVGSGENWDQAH

Substance: maleimido-methylcyclohexane-dUTP [MCC-dUTP]
- accepted as substrate by Klenow polymerase in primer extension (Klenow polymerase): accepted as a substrate
- incorporation into DNA by Taq DNA polymerase in primer extension (Taq DNA polymerase): essentially the same degree of incorporation as PDP-dUTP
- accepted as substrate by exonuclease free Klenow polymerase in primer extension [1]: accepted as a substrate
- incorporation into DNA by T7 DNA polymerase in primer extension (T7 DNA polymerase): essentially the same degree of incorporation as PDP-dUTP
- number of contiguous modified bases added to the 3' terminus [2]: up to 5 bases

Substance: pyridine dithiopropanoate-dUTP [PDP-dUTP]
- incorporation into DNA by Taq DNA polymerase in primer extension (Taq DNA polymerase): incorporated into DNA; also recorded: incorporated at several sites
- substrate efficiency with T7 polymerase relative to Taq polymerase (T7 DNA polymerase; smaller fragments observed in T7 reaction): reduced substrate efficiency with T7 polymerase compared to Taq polymerase
- incorporation into DNA by T7 DNA polymerase in primer extension (T7 DNA polymerase): incorporated into DNA
- substrate for TdT in oligonucleotide tailing / 3'-end labeling ([2]; Procedure 1, 20% denaturing PAGE, autoradiography): substrate for TdT
- number of contiguous modified bases added to the 3' terminus [2]: up to 10 bases
